Key:
[1] = molecular target: Prostaglandin F2-alpha receptor (Mus musculus, UniProt P43117)
Description: Agonist activity at FP receptor in mouse 3T3 fibroblast cells assessed as intracellular calcium mobilization by FLIPR

in vitro [2] = settings: rabbit
Description: Corneal permeability in rabbit corneal tissues mounted on vertical Using chambers

in vitro [3] = settings: human, Caco-2
Description: Permeability across human Caco2 cells

[4] = molecular target: Prostaglandin F2-alpha receptor (Mus musculus) (UniProt P43117); test: Intrinsic activity at FP receptor in mouse 3T3 fibroblast cells assessed as maximum compound-evoked response; format: cell-based
Prostaglandin F2-alpha receptor (Mus musculus), sequence (P43117 whole entry): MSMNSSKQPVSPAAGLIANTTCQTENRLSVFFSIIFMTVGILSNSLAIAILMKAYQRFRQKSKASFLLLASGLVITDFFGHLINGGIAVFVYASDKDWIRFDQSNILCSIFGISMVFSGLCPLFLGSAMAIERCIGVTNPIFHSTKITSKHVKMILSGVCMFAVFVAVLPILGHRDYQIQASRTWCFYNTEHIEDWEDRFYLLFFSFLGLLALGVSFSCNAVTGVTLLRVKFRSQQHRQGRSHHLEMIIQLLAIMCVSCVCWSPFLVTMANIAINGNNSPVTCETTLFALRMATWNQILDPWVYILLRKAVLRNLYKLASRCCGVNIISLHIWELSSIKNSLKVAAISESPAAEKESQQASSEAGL

Prostaglandin F2-alpha receptor, sequence (P43117 whole entry): as above

Row | Compound | EC50 [1] [µM] | Papp (in vitro [2]) [×10⁻⁶ cm/s] | Papp (in vitro [3]) [×10⁻⁶ cm/s] | Intrinsic activity [4]
1 | CCCCC[C@H](O)/C=C/[C@@H]1[C@@H](C/C=C\CCCC(=O)N(CC)[C@H]2CN(CCCOC)S(=O)(=O)C3SC(S(N)(=O)=O)=CC32)[C@@H](O)C[C@H]1O (some centres undefined) | > 5.01 | – | – | –
2 | CC(C)OC(=O)CCC/C=C\C[C@@H]1[C@@H](CNCC(=O)Nc2nnc(S(N)(=O)=O)s2)[C@H](O)C[C@@H]1O | > 5.01 | 3.1 | 2.1 | –
3 | NS(=O)(=O)c1ccc(-n2cc([C@@H]3[C@@H](C/C=C\CCCC(=O)O)[C@@H](O)C[C@H]3O)nn2)cc1 | 2 | 1.7 | 3.3 | > 1
4 | CCCCC[C@H](O)/C=C/[C@@H]1[C@@H](C/C=C\CCCC(=O)Nc2nnc(S(N)(=O)=O)s2)[C@@H](O)C[C@H]1O | 3.98 | 6.4 | 1.6 | 0.9
5 | CCCCC[C@H](O)/C=C/[C@@H]1[C@@H](C/C=C\CCCC(=O)O)[C@@H](O)C[C@H]1O [DINOPROST] | – | 9.7 | 3.3 | 1
6 | COC(=O)CCC/C=C\C[C@@H]1[C@@H](c2cn(-c3ccc(S(N)(=O)=O)cc3)nn2)[C@H](O)C[C@@H]1O | > 5.01 | 2.1 | 3.2 | –
7 | CCN(C(=O)/C=C/[C@@H]1[C@@H](C/C=C\CCCC(=O)O)[C@@H](O)C[C@H]1O)[C@H]1C[C@H](C)S(=O)(=O)C2SC(S(N)(=O)=O)=CC21 (some centres undefined) | > 5.01 | – | – | –
8 | CC(C)OC(=O)CCC/C=C\C[C@@H]1[C@@H](/C=C/C(=O)Nc2nnc(S(N)(=O)=O)s2)[C@H](O)C[C@@H]1O | > 5.01 | – | – | –
9 | CCN(C(=O)/C=C/[C@@H]1[C@@H](C/C=C\CCCC(=O)OC(C)C)[C@@H](O)C[C@H]1O)[C@H]1C[C@H](C)S(=O)(=O)C2SC(S(N)(=O)=O)=CC21 (some centres undefined) | > 5.01 | – | – | –
10 | CCCCC[C@H](O)/C=C/[C@@H]1[C@@H](C/C=C\CCCC(=O)NCCc2ccc(S(N)(=O)=O)cc2)[C@@H](O)C[C@H]1O | > 5.01 | – | – | –
11 | NS(=O)(=O)c1nnc(NC(=O)CNC[C@@H]2[C@@H](C/C=C\CCCC(=O)O)[C@@H](O)C[C@H]2O)s1 | > 5.01 | 0.94 | 3 | –
12 | O=C(O)CCC/C=C\C[C@@H]1[C@@H](CC[C@@H](O)CCc2ccccc2)[C@H](O)C[C@@H]1O [LATANOPROST ACID] | 0.00631 | 1.2 | 3.5 | 1

Source: ChEMBL document CHEMBL2321768, “A multivalent approach towards linked dual-pharmacology prostaglandin F receptor agonist/carbonic anhydrase-II inhibitors for the treatment of glaucoma” (Bioorg Med Chem Lett, 2013)
